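Interpolation was linear, between the two tested concentrations surrounding the appropriate level; five concentrations were tested over 48 hours in 96-well plates. At the TGI there is no net growth.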
Legend:
Assay in all cases: DTP human tumour cell line panel, 48 h
NCI/ADR-RES ovarian = system: NCI/ADR-RES ovarian
HT29 colon = system: HT29 colon
SNB-75 CNS = system: SNB-75 CNS
MDA-MB-231 breast = system: MDA-MB-231 breast
U251 CNS = system: U251 CNS
HL-60(TB) leukemia = system: HL-60(TB) leukemia
SR leukemia = system: SR leukemia
MDA-N = system: MDA-N
TK-10 renal = system: TK-10 renal
SW-620 colon = system: SW-620 colon
K-562 leukemia = system: K-562 leukemia
HCT-15 colon = system: HCT-15 colon
UACC-257 melanoma = system: UACC-257 melanoma
CAKI-1 renal = system: CAKI-1 renal
A549 NSCLC = system: A549 NSCLC
KM12 colon = system: KM12 colon
OVCAR-8 ovarian = system: OVCAR-8 ovarian
MCF7 breast = system: MCF7 breast
NCI-H23 lung = system: NCI-H23 lung
MOLT-4 leukemia = system: MOLT-4 leukemia
UO-31 renal = system: UO-31 renal
HOP-62 NSCLC = system: HOP-62 NSCLC
786-0 renal = system: 786-0 renal
SK-MEL-5 melanoma = system: SK-MEL-5 melanoma
LOX IMVI melanoma = system: LOX IMVI melanoma
SF-295 CNS = system: SF-295 CNS
CCRF-CEM leukemia = system: CCRF-CEM leukemia
OVCAR-3 ovarian = system: OVCAR-3 ovarian
UACC-62 melanoma = system: UACC-62 melanoma
M14 melanoma = system: M14 melanoma
SNB-19 CNS = system: SNB-19 CNS
T-47D breast = system: T-47D breast
MDA-MB-435 = system: MDA-MB-435
PC-3 prostate = system: PC-3 prostate
HOP-92 NSCLC = system: HOP-92 NSCLC
SN12C renal = system: SN12C renal
IGROV1 ovarian = system: IGROV1 ovarian
OVCAR-4 ovarian = system: OVCAR-4 ovarian
ACHN renal = system: ACHN renal
EKVX NSCLC = system: EKVX NSCLC
A498 renal = system: A498 renal
DU-145 prostate = system: DU-145 prostate
SK-OV-3 ovarian = system: SK-OV-3 ovarian
MALME-3M melanoma = system: MALME-3M melanoma
BT-549 breast = system: BT-549 breast
NCI-H460 lung = system: NCI-H460 lung
HS 578T breast = system: HS 578T breast
HCT-116 colon = system: HCT-116 colon
SK-MEL-2 melanoma = system: SK-MEL-2 melanoma
NCI-H226 lung = system: NCI-H226 lung
RPMI-8226 leukemia = system: RPMI-8226 leukemia
HCC-2998 colon = system: HCC-2998 colon
SF-268 CNS = system: SF-268 CNS
COLO 205 colon = system: COLO 205 colon
NCI-H522 lung = system: NCI-H522 lung
OVCAR-5 ovarian = system: OVCAR-5 ovarian
SK-MEL-28 melanoma = system: SK-MEL-28 melanoma
SF-539 CNS = system: SF-539 CNS

Compound: O=C(c1cccc(OCc2ccccc2)c1OCc1ccccc1)N1CCSC1=S
- TGI (NCI/ADR-RES ovarian): > 100 µM
- TGI (HT29 colon): > 100 µM
- TGI (SNB-75 CNS): 34.2 µM
- TGI (MDA-MB-231 breast): > 78.2 µM
- TGI (U251 CNS): > 100 µM
- TGI (HL-60(TB) leukemia): 33.1 µM
- TGI (SR leukemia): 45.2 µM
- TGI (MDA-N): > 100 µM
- TGI (TK-10 renal): > 100 µM
- TGI (SW-620 colon): > 100 µM
- TGI (K-562 leukemia): > 100 µM
- TGI (HCT-15 colon): > 100 µM
- TGI (UACC-257 melanoma): > 87.7 µM
- TGI (CAKI-1 renal): > 92.9 µM
- TGI (A549 NSCLC): > 100 µM
- TGI (KM12 colon): 36.9 µM
- TGI (OVCAR-8 ovarian): > 100 µM
- TGI (MCF7 breast): > 100 µM
- TGI (NCI-H23 lung): 74.9 µM
- TGI (MOLT-4 leukemia): 38.7 µM
- TGI (UO-31 renal): 97.2 µM
- TGI (HOP-62 NSCLC): > 100 µM
- TGI (786-0 renal): > 100 µM
- TGI (SK-MEL-5 melanoma): 31.7 µM
- TGI (LOX IMVI melanoma): > 100 µM
- TGI (SF-295 CNS): > 100 µM
- TGI (CCRF-CEM leukemia): 24.4 µM
- TGI (OVCAR-3 ovarian): 62.9 µM
- TGI (UACC-62 melanoma): 42.6 µM
- TGI (M14 melanoma): > 100 µM
- TGI (SNB-19 CNS): > 100 µM
- TGI (T-47D breast): > 100 µM
- TGI (MDA-MB-435): > 100 µM
- TGI (PC-3 prostate): > 100 µM
- TGI (HOP-92 NSCLC): > 100 µM
- TGI (SN12C renal): > 100 µM
- TGI (IGROV1 ovarian): > 100 µM
- TGI (OVCAR-4 ovarian): > 100 µM
- TGI (ACHN renal): > 100 µM
- TGI (EKVX NSCLC): > 100 µM
- TGI (A498 renal): 80.1 µM
- TGI (DU-145 prostate): > 100 µM
- TGI (SK-OV-3 ovarian): > 100 µM
- TGI (MALME-3M melanoma): > 72.9 µM
- TGI (BT-549 breast): > 100 µM
- TGI (NCI-H460 lung): > 100 µM
- TGI (HS 578T breast): > 45.8 µM
- TGI (HCT-116 colon): > 100 µM
- TGI (SK-MEL-2 melanoma): > 75.4 µM
- TGI (NCI-H226 lung): > 100 µM
- TGI (RPMI-8226 leukemia): 43 µM
- TGI (HCC-2998 colon): > 100 µM
- TGI (SF-268 CNS): > 52.8 µM
- TGI (COLO 205 colon): 26.4 µM
- TGI (NCI-H522 lung): > 58.1 µM
- TGI (OVCAR-5 ovarian): > 100 µM
- TGI (SK-MEL-28 melanoma): > 100 µM
- TGI (SF-539 CNS): > 100 µM

Reference: PubChem BioAssay (NCI)
